Assay results taken from the NIST ThermoML archive (doi:10.1021/je0340809).
± gives the expanded uncertainty stated by the source.

Assay: xn = mol fraction of the nth substance listed
Conditions: 101.3 kPa, Liquid

CN1CCCC1=O [N-methylpyrrolidone] + O
Conditions | mass density [kg/m3] | speed of sound [m/s] | viscosity [mPa·s]
298.15 K, x2 = 0.0522 | 1029.55 ± 0.69 | 1548.8 ± 6.4 | 1.721 ± 0.041
298.15 K, x2 = 0.1684 | 1032.9 ± 0.71 | 1561 ± 6.4 | 1.985 ± 0.046
298.15 K, x2 = 0.2465 | 1035.15 ± 0.72 | 1579.5 ± 6.5 | 2.147 ± 0.05
298.15 K, x2 = 0.3481 | 1038.13 ± 0.74 | 1616.8 ± 6.6 | 2.535 ± 0.059
298.15 K, x2 = 0.4534 | 1041.65 ± 0.76 | 1653.8 ± 6.7 | 3.346 ± 0.076
298.15 K, x2 = 0.5018 | 1043.41 ± 0.77 | 1667.7 ± 6.7 | 3.838 ± 0.087
298.15 K, x2 = 0.5493 | 1045.11 ± 0.78 | 1682 ± 6.8 | 4.338 ± 0.097
298.15 K, x2 = 0.6504 | 1047.71 ± 0.8 | 1711.3 ± 6.9 | 5.159 ± 0.11
298.15 K, x2 = 0.752 | 1046.06 ± 0.79 | 1738.2 ± 6.9 | 5.071 ± 0.11
298.15 K, x2 = 0.8536 | 1035.21 ± 0.72 | 1748.1 ± 7 | 3.65 ± 0.083
298.15 K, x2 = 0.8742 | 1031.43 ± 0.7 | 1738.4 ± 6.9 | 3.224 ± 0.073
298.15 K, x2 = 0.8849 | 1029.24 ± 0.68 | 1730.9 ± 6.9 | 2.992 ± 0.068
298.15 K, x2 = 0.8996 | 1025.97 ± 0.66 | 1716.8 ± 6.9 | 2.668 ± 0.061
298.15 K, x2 = 0.9257 | 1019.43 ± 0.62 | 1681.1 ± 6.8 | 2.093 ± 0.049
298.15 K, x2 = 0.9368 | 1016.38 ± 0.6 | 1661 ± 6.7 | 1.857 ± 0.044
298.15 K, x2 = 0.9557 | 1010.88 ± 0.57 | 1621.2 ± 6.6 | 1.487 ± 0.036
298.15 K, x2 = 0.9641 | 1008.33 ± 0.55 | 1600.8 ± 6.5 | 1.338 ± 0.032
298.15 K, x2 = 0.9754 | 1004.82 ± 0.53 | 1571.3 ± 6.4 | 1.16 ± 0.029
298.15 K, x2 = 0.99 | 1000.21 ± 0.5 | 1529.1 ± 6.3 | 0.978 ± 0.025
308.15 K, x2 = 0.0522 | 1020.49 ± 0.63 | 1521.3 ± 6.3 | 1.405 ± 0.034
308.15 K, x2 = 0.1684 | 1023.58 ± 0.65 | 1533.3 ± 6.3 | 1.588 ± 0.038
308.15 K, x2 = 0.2465 | 1025.1 ± 0.66 | 1549.9 ± 6.4 | 1.702 ± 0.04
308.15 K, x2 = 0.3481 | 1028.58 ± 0.68 | 1578.3 ± 6.5 | 1.979 ± 0.047
308.15 K, x2 = 0.4534 | 1032.02 ± 0.7 | 1610.1 ± 6.6 | 2.567 ± 0.06
308.15 K, x2 = 0.5018 | 1033.74 ± 0.71 | 1624.8 ± 6.6 | 2.925 ± 0.067
308.15 K, x2 = 0.5493 | 1035.39 ± 0.72 | 1639.5 ± 6.6 | 3.289 ± 0.075
308.15 K, x2 = 0.6504 | 1037.97 ± 0.74 | 1672 ± 6.7 | 3.885 ± 0.088
308.15 K, x2 = 0.752 | 1036.73 ± 0.73 | 1702.6 ± 6.8 | 3.814 ± 0.087
308.15 K, x2 = 0.8536 | 1027.32 ± 0.67 | 1707.3 ± 6.9 | 2.76 ± 0.064
308.15 K, x2 = 0.8742 | 1024.02 ± 0.65 | 1700.3 ± 6.8 | 2.446 ± 0.057
308.15 K, x2 = 0.8849 | 1022.1 ± 0.64 | 1694.9 ± 6.8 | 2.273 ± 0.053
308.15 K, x2 = 0.8996 | 1019.23 ± 0.62 | 1685.4 ± 6.8 | 2.034 ± 0.048
308.15 K, x2 = 0.9257 | 1013.52 ± 0.58 | 1661.1 ± 6.7 | 1.609 ± 0.039
308.15 K, x2 = 0.9368 | 1010.86 ± 0.57 | 1647.4 ± 6.7 | 1.435 ± 0.035
308.15 K, x2 = 0.9557 | 1006.06 ± 0.54 | 1618.8 ± 6.6 | 1.16 ± 0.029
308.15 K, x2 = 0.9641 | 1003.83 ± 0.52 | 1603.6 ± 6.5 | 1.051 ± 0.026
308.15 K, x2 = 0.9754 | 1000.77 ± 0.5 | 1580.6 ± 6.4 | 0.92 ± 0.023
308.15 K, x2 = 0.99 | 996.769 ± 0.52 | 1546.1 ± 6.3 | 0.785 ± 0.02
318.15 K, x2 = 0.0522 | 1011.19 ± 0.58 | 1480.9 ± 6.2 | 1.232 ± 0.03
318.15 K, x2 = 0.1684 | 1014.09 ± 0.59 | 1493 ± 6.2 | 1.35 ± 0.032
318.15 K, x2 = 0.2465 | 1016.08 ± 0.6 | 1508.9 ± 6.2 | 1.429 ± 0.034
318.15 K, x2 = 0.3481 | 1018.81 ± 0.62 | 1535.9 ± 6.3 | 1.613 ± 0.038
318.15 K, x2 = 0.4534 | 1022.08 ± 0.64 | 1566.5 ± 6.4 | 2.03 ± 0.048
318.15 K, x2 = 0.5018 | 1023.72 ± 0.65 | 1580.9 ± 6.5 | 2.287 ± 0.053
318.15 K, x2 = 0.5493 | 1025.31 ± 0.66 | 1595.4 ± 6.5 | 2.547 ± 0.059
318.15 K, x2 = 0.6504 | 1027.9 ± 0.68 | 1628.2 ± 6.6 | 2.973 ± 0.068
318.15 K, x2 = 0.752 | 1027.12 ± 0.67 | 1661.2 ± 6.7 | 2.905 ± 0.067
318.15 K, x2 = 0.8536 | 1019.09 ± 0.62 | 1674.5 ± 6.7 | 2.117 ± 0.05
318.15 K, x2 = 0.8742 | 1016.22 ± 0.6 | 1670.7 ± 6.7 | 1.882 ± 0.045
318.15 K, x2 = 0.8849 | 1014.55 ± 0.59 | 1667.3 ± 6.7 | 1.754 ± 0.042
318.15 K, x2 = 0.8996 | 1012.06 ± 0.57 | 1660.9 ± 6.7 | 1.576 ± 0.038
318.15 K, x2 = 0.9257 | 1007.08 ± 0.54 | 1643.6 ± 6.6 | 1.261 ± 0.031
318.15 K, x2 = 0.9368 | 1004.77 ± 0.53 | 1633.5 ± 6.6 | 1.13 ± 0.028
318.15 K, x2 = 0.9557 | 1000.59 ± 0.5 | 1611.9 ± 6.5 | 0.928 ± 0.023
318.15 K, x2 = 0.9641 | 998.66 ± 0.51 | 1600.4 ± 6.5 | 0.845 ± 0.022
318.15 K, x2 = 0.9754 | 996.013 ± 0.52 | 1582.7 ± 6.5 | 0.747 ± 0.019
318.15 K, x2 = 0.99 | 992.557 ± 0.55 | 1556.1 ± 6.4 | 0.645 ± 0.017
328.15 K, x2 = 0.0522 | 1002.19 ± 0.52 | 1451.9 ± 6.1 | 1.124 ± 0.027
328.15 K, x2 = 0.1684 | 1004.9 ± 0.54 | 1463.8 ± 6.1 | 1.194 ± 0.029
328.15 K, x2 = 0.2465 | 1006.77 ± 0.55 | 1478.8 ± 6.1 | 1.234 ± 0.03
328.15 K, x2 = 0.3481 | 1009.34 ± 0.56 | 1504.2 ± 6.2 | 1.357 ± 0.033
328.15 K, x2 = 0.4534 | 1012.42 ± 0.58 | 1533.2 ± 6.3 | 1.647 ± 0.039
328.15 K, x2 = 0.5018 | 1013.98 ± 0.59 | 1547.1 ± 6.4 | 1.827 ± 0.043
328.15 K, x2 = 0.5493 | 1015.5 ± 0.6 | 1561.1 ± 6.4 | 2.011 ± 0.047
328.15 K, x2 = 0.6504 | 1018.05 ± 0.61 | 1593.5 ± 6.5 | 2.308 ± 0.054
328.15 K, x2 = 0.752 | 1017.63 ± 0.61 | 1627.4 ± 6.6 | 2.241 ± 0.052
328.15 K, x2 = 0.8536 | 1010.77 ± 0.57 | 1646.4 ± 6.7 | 1.645 ± 0.039
328.15 K, x2 = 0.8742 | 1008.28 ± 0.55 | 1645 ± 6.7 | 1.47 ± 0.035
328.15 K, x2 = 0.8849 | 1006.83 ± 0.54 | 1643.2 ± 6.6 | 1.374 ± 0.033
328.15 K, x2 = 0.8996 | 1004.66 ± 0.53 | 1639.2 ± 6.6 | 1.24 ± 0.03
328.15 K, x2 = 0.9257 | 1000.32 ± 0.5 | 1627.2 ± 6.6 | 1.004 ± 0.025
328.15 K, x2 = 0.9368 | 998.296 ± 0.51 | 1619.9 ± 6.6 | 0.907 ± 0.023
328.15 K, x2 = 0.9557 | 994.66 ± 0.53 | 1603.9 ± 6.5 | 0.753 ± 0.02
328.15 K, x2 = 0.9641 | 992.982 ± 0.54 | 1595.2 ± 6.5 | 0.692 ± 0.018
328.15 K, x2 = 0.9754 | 990.687 ± 0.56 | 1581.7 ± 6.5 | 0.618 ± 0.017
328.15 K, x2 = 0.99 | 987.705 ± 0.58 | 1561.2 ± 6.4 | 0.541 ± 0.015
338.15 K, x2 = 0.0522 | 993.182 ± 0.55 | 1410.7 ± 5.9 | 0.987 ± 0.025
338.15 K, x2 = 0.1684 | 995.706 ± 0.53 | 1422.8 ± 6 | 1.026 ± 0.025
338.15 K, x2 = 0.2465 | 997.455 ± 0.52 | 1437.4 ± 6 | 1.048 ± 0.026
338.15 K, x2 = 0.3481 | 999.87 ± 0.51 | 1461.9 ± 6.1 | 1.129 ± 0.028
338.15 K, x2 = 0.4534 | 1002.78 ± 0.52 | 1490.2 ± 6.2 | 1.332 ± 0.032
338.15 K, x2 = 0.5018 | 1004.25 ± 0.53 | 1504 ± 6.2 | 1.46 ± 0.035
338.15 K, x2 = 0.5493 | 1005.71 ± 0.54 | 1518 ± 6.3 | 1.591 ± 0.038
338.15 K, x2 = 0.6504 | 1008.2 ± 0.56 | 1551 ± 6.4 | 1.799 ± 0.043
338.15 K, x2 = 0.752 | 1008.09 ± 0.55 | 1587.1 ± 6.5 | 1.74 ± 0.042
338.15 K, x2 = 0.8536 | 1002.25 ± 0.52 | 1613.3 ± 6.6 | 1.292 ± 0.032
338.15 K, x2 = 0.8742 | 1000.1 ± 0.5 | 1614.4 ± 6.6 | 1.161 ± 0.029
338.15 K, x2 = 0.8849 | 998.836 ± 0.51 | 1614.4 ± 6.6 | 1.089 ± 0.027
338.15 K, x2 = 0.8996 | 996.948 ± 0.52 | 1613 ± 6.6 | 0.99 ± 0.025
338.15 K, x2 = 0.9257 | 993.171 ± 0.54 | 1602.6 ± 6.5 | 0.813 ± 0.021
338.15 K, x2 = 0.9368 | 991.416 ± 0.55 | 1602.1 ± 6.5 | 0.74 ± 0.019
338.15 K, x2 = 0.9557 | 988.261 ± 0.57 | 1591.8 ± 6.5 | 0.627 ± 0.017
338.15 K, x2 = 0.9641 | 986.808 ± 0.58 | 1585.9 ± 6.5 | 0.58 ± 0.016
338.15 K, x2 = 0.9754 | 984.827 ± 0.59 | 1576.7 ± 6.4 | 0.524 ± 0.015
338.15 K, x2 = 0.99 | 982.266 ± 0.61 | 1562.4 ± 6.4 | 0.467 ± 0.013
